Consider 21 compounds from publication PMC12288609 (Bioorganic & medicinal chemistry letters, 2024).

By inhibition is commonly meant the drop in the measured response relative to a control, in per cent. In general, Ki refers to a measure of affinity in units of concentration, obtained from inhibition or displacement. Usually half-life stands for the time in which the quantity being followed falls by half. Low values mean fast loss, high ones slow loss. Broadly, the microsomal CLint is the rate of metabolic loss divided by the concentration.

The conditions of data set [1]: cited from earlier work.
Data set [2] in a line: IAM chromatography, chromatographic hydrophobicity index. Type of data set: physicochemical. As to conditions: pH 7.4 mobile phase. The method, then: Before determining neosubstrate degradation, an obvious effect of fluorination was experimentally specified in this study, i.e., the alteration of lipophilicity. Distribution coefficients at pH 7.4 were determined by an HPLC-based method.[14] As expected, the lipophilicity (elogD7.4) increased due to the introduction of fluorine, and elogD differences were in the range of 0.8 to 1.2 (Table 1). […] The exchange of the glutarimide in 1, 2, 5, and 6 by the barbituric acid unit in 3, 4, 7, and 8 increased lipophilicity by elogD differences of 1.3 to 1.7. Drug-membrane interactions were assessed by a high-throughput HPLC method on an Immobilized Artificial Membrane (IAM) column consisting of monolayers of phospholipids covalently bound to silica particles.[15]
[16] IAM chromatography was performed with a Regis IAM.PC.DD2 column (100 × 4.6 mm, 10 μm, 300 Å) equipped with a guard cartridge at 25 °C as described.[14] Mobile phase A was 50 mM NH4OAc, pH 7.4, mobile phase B was MeCN. The retention times were determined with a gradient of 0 to 95% MeCN from 0 to 6 min, which was kept at 95% until 6.5 min, then dropped to 0% from 6.5 to 7 min, and finally kept at 0% until 9 min. The mobile phase flow rate was 1.5 mL/min. A calibration was performed by plotting the retention times of paracetamol, acetanilide, acetophenone, propiophenone, butyrophenone, valerophenone, and octanophenone against their literature CHI values.[15].

In data set [3] the test system is HUVECs. The experiment in a line: Endothelial cell tube formation assay.
Data set [4] can be described thus: Distribution coefficient at pH 7.4 by HPLC-based method. Type of data set: physicochemical. As to conditions: pH 7.4, estimated by an HPLC-based method; for chromatographic logD: HPLC-based method (chromatographic retention), read-out: elogD7.4.
For data set [5], the target named is human TBD (residues 319–425 of human CRBN). Details: method as in PMID 33310190. As to conditions: affinity to human TBD, n.b. = no significant CRBN binding, cited from earlier work.
The test system of data set [6] is HUVECs. As to conditions: cited from earlier work; for Tube formation IC50: endothelial cell tube formation assay, n.i. = no inhibition, tested at 10–100 μM without significant antiangiogenic activity.
In another data set the target is SALL4 (Homo sapiens, UniProt Q96SW2+Q9UJQ4). The experiment in a line: SALL4 degradation in HuH6 cells, Western blot. As to conditions: 16 h; for Neosubstrate degradation (%) SALL4: 1.0 μM, Western blot densitometry normalized to DMSO; for SALL4 degradation (Western blot, in words): 1.0 μM (0.1 μM in Fig. S2). (In general: In western blotting, separated proteins are transferred to a membrane and probed.)
SALL4, sequence (Q9UJQ4 whole entry): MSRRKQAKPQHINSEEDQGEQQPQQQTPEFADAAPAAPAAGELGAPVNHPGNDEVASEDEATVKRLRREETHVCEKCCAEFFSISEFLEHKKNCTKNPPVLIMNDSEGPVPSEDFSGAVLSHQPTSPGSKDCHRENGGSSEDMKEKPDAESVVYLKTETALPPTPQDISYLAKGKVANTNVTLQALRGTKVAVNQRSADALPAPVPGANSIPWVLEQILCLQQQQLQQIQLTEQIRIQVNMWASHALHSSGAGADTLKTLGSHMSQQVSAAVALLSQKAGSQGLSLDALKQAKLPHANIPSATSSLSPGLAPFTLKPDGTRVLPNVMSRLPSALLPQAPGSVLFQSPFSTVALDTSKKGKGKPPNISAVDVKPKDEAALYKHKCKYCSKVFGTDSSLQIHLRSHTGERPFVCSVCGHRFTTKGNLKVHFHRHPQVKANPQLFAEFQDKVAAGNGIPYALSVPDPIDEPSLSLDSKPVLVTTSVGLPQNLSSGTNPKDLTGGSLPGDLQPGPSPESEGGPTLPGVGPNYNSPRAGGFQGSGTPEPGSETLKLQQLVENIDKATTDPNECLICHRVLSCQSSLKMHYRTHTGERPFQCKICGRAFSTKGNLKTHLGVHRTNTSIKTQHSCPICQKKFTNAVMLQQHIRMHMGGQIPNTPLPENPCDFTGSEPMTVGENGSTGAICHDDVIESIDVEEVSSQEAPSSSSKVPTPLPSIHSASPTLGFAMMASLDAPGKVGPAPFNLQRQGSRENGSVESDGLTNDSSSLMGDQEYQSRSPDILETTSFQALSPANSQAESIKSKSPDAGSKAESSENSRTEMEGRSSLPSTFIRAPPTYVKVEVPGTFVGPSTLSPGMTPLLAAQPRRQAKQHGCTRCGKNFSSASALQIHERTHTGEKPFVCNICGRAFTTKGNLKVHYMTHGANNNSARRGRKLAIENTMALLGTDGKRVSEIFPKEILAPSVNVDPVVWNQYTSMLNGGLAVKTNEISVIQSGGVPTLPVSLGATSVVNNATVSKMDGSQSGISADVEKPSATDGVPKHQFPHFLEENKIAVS
SALL4, sequence (Q96SW2 whole entry): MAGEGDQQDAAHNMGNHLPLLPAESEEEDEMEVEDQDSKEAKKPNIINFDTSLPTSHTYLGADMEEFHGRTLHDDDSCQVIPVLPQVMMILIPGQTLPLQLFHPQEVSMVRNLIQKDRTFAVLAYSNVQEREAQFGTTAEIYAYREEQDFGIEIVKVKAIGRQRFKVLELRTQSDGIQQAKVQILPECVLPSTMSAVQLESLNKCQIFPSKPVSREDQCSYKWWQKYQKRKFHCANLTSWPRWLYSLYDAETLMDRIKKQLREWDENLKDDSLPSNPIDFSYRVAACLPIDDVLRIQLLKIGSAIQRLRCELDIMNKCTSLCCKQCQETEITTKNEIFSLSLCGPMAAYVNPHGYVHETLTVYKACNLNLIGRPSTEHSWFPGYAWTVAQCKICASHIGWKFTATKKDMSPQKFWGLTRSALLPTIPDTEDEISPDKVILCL
SALL4, sequence (Q16531 whole entry partner): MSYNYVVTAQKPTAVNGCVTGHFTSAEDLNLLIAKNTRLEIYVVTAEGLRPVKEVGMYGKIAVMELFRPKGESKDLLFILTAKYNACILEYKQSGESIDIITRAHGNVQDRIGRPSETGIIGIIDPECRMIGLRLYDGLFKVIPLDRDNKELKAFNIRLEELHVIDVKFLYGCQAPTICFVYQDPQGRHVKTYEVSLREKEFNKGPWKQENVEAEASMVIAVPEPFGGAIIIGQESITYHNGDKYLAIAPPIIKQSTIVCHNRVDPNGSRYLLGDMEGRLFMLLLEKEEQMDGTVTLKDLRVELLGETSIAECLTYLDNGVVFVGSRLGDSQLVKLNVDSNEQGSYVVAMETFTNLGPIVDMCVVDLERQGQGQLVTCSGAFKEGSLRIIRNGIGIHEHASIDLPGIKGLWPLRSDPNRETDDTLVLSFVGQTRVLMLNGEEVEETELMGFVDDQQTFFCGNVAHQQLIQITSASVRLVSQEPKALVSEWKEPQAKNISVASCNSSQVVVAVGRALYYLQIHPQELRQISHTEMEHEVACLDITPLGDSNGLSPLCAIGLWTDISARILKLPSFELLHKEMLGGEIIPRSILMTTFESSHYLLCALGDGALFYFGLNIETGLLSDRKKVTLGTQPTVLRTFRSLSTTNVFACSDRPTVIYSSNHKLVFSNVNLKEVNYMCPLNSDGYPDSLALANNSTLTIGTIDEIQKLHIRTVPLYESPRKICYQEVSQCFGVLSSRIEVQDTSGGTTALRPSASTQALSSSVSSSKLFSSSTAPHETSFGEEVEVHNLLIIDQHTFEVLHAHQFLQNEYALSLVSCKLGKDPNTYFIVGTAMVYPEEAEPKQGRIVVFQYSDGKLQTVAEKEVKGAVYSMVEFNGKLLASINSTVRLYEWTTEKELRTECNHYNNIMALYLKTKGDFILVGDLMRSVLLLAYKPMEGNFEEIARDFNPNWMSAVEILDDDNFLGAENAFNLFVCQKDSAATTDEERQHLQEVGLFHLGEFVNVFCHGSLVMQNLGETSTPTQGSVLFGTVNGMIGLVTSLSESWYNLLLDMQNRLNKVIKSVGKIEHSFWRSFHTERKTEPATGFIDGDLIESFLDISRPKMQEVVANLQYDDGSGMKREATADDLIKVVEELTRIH
SALL4, sequence (Q13619 whole entry partner): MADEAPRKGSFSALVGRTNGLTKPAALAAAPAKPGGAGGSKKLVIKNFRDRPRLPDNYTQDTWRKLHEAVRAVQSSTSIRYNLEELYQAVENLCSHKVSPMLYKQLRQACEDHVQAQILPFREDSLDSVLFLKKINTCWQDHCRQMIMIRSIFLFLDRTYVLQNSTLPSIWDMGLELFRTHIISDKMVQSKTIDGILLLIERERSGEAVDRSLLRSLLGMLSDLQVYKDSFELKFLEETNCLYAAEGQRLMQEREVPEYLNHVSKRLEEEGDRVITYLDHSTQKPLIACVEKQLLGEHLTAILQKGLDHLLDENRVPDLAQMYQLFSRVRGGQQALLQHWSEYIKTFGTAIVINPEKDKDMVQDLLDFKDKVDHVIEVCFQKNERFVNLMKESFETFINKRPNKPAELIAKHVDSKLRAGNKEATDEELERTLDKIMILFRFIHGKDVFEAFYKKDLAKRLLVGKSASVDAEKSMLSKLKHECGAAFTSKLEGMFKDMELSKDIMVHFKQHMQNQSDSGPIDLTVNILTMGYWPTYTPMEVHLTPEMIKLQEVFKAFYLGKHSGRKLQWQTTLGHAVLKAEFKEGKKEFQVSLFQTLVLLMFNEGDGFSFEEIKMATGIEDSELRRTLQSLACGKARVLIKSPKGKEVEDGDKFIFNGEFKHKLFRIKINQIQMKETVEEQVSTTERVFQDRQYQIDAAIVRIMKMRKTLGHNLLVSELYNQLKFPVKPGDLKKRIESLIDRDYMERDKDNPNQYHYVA
SALL4, sequence (P62877 whole entry partner): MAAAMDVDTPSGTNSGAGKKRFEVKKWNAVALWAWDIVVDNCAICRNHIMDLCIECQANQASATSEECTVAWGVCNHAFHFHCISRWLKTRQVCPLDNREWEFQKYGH

A further data set deals with IKZF3 (Homo sapiens, UniProt Q96SW2+Q9UKT9). Description: IKZF3 degradation in MM.1S cells, Western blot. As to conditions: 16 h; for Neosubstrate degradation (%) IKZF3: 1.0 μM, Western blot densitometry normalized to DMSO; for IKZF3 degradation (Western blot, in words): 1.0 μM (0.1 μM in Fig. S2).
IKZF3, sequence (Q9UKT9 whole entry): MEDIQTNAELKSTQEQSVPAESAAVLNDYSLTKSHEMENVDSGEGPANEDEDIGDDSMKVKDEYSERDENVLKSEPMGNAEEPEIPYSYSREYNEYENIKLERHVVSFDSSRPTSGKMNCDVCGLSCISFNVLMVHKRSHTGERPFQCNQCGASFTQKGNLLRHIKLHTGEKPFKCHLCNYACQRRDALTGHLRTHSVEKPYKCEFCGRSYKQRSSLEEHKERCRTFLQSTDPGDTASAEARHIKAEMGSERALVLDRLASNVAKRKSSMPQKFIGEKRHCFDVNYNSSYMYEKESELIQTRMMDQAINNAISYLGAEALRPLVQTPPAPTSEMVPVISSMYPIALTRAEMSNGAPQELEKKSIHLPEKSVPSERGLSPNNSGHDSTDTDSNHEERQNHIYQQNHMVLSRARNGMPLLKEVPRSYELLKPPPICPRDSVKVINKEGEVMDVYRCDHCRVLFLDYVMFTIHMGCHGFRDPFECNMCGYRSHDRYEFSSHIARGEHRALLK
IKZF3, sequence (Q96SW2 whole entry): as the sequence (Q96SW2 whole entry) above
IKZF3, sequence (Q16531 whole entry partner): as the sequence (Q16531 whole entry partner) above
IKZF3, sequence (Q13619 whole entry partner): as the sequence (Q13619 whole entry partner) above
IKZF3, sequence (P62877 whole entry partner): as the sequence (P62877 whole entry partner) above
The subject of data set [7] is HUVECs. Description: CCK-8 cell proliferation assay, HUVEC. Type of data set: cell-based, human. As to conditions: 48 h. In general terms: Tetrazolium assays rely on reduction of a dye to a coloured formazan, in cell work by metabolically active cells.
Experimental: (§1) HUVEC cells were cultured as described.[13]
(§2) [19] For the cell proliferation assay, HUVEC (15,000 cells/well) and MM1.S (20,000 cells/well) cells were seeded in a 96-well plate in 50 μL/well and allowed to incubate overnight at 37 °C in 5% CO2. An equal amount of treatment media containing the vehicle (0.5% DMSO), or the test compound was then plated on top of the seeded for 48 hours (HUVEC) or 72 hours (MM1.S). Cell proliferation was evaluated by adding 10 μL of Cell Counting Reagent-8 (CCK-8; Dojindo Laboratories, Rockville, MD) to each well and incubated for 2 hours. Plates were read at absorbance of 450 nm on a microplate reader (SpectraMax iD3, Molecular Devices, San Jose, CA).
Data set [8] relates to multiple myeloma MM1.S cells. Description: CCK-8 cell proliferation assay, MM1.S. As to conditions: 10 μM, 72 h. Type of data set: cell-based.
Experimental: as §1, §2
A short description of data set [9]: Metabolic stability in human liver microsomes. Background: Liver microsomes are a subcellular fraction often used to study metabolism.
Experimental: Metabolic stability analyses in human liver microsomes were performed by Pharmacelsus (Saarbrücken, Germany) as described.[14].
In a further data set the target is IKZF3-GFP fusion protein (Homo sapiens, UniProt Q96SW2+Q9UKT9). As to conditions: MM.1S cells, 16 h, 0.1 μM, 1.0 μM and 10 μM.
IKZF3-GFP fusion protein, sequence (Q9UKT9 146-168 limits assumed): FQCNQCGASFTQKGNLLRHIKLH
IKZF3-GFP fusion protein, sequence (Q96SW2 whole entry, the tested form may be a part): as the sequence (Q96SW2 whole entry) above
IKZF3-GFP fusion protein, sequence (Q16531 whole entry partner, the tested form may be a part): as the sequence (Q16531 whole entry partner) above
IKZF3-GFP fusion protein, sequence (Q13619 whole entry partner, the tested form may be a part): as the sequence (Q13619 whole entry partner) above
IKZF3-GFP fusion protein, sequence (P62877 whole entry partner, the tested form may be a part): as the sequence (P62877 whole entry partner) above
[10] abbreviates: Homo sapiens, HUVEC, 18 h, read-out: Inhibition of tube formation (%).

SMILES strings stand for the structures. Where two headings read alike, the source gives them in different places. Marks after values point to notes of the source that are not given here.

Experimental for IKZF3-GFP fusion protein: This method distinguished direct effects on protein degradation from effects that regulate transcriptional expression.
In brief, the plasmid comprised the IMiD-binding zinc finger 2 (ZF2) of IKZF3 fused to eGFP with mCherry in vector backbone. MM.1S cells were lentivirally transduced with the IKZF3-ZF2 reporter and treated with respective compounds for 16 hours. Flow cytometry was performed for the quantification of eGFP and mCherry mean fluorescence intensity. The eGFP/mCherry ratio was indicative of IKZF3-ZF2 degradation levels. Compound-treated samples were normalized to DMSO-treated samples. Data was obtained with biological replicates (n=3) and representmean± SD.
The Artichoke reporter assay was performed as described.[14] Briefly, HEK293T cells were transfected and virus was harvested. MM1.S cells were transduced and treated with the test compounds. Cells were measured on a Cytoflex (Beckman Coulter) flow cytometer. Live single cells expressing mCherry were gated for FITC and histograms displaying counts were plotted and quantified.

As for `O=C1CCC(NC(=O)c2cc(F)c(F)c(F)c2F)C(=O)N1` (stereo not shown) [Compound 6], the elogD7.4 in data set [1] (pH 7.4, HPLC-based method) is 0.9^j.
`O=C1CCC(NC(=O)c2ccccc2F)C(=O)N1` (stereo not shown) [Compound 9, N-(2,6-Dioxo-3-piperidyl)-2-fluorobenzamide] showed a CHIIAM in [2] of 5.7. Besides, in the data set on HUVECs [3] (setting [10]), the inhibition at 100 µM worked out at 13.4%. Further, the chromatographic logD in data set [4] was -0.1.
For the compound `CC(C)N1C(=O)NC(=O)C(C)(NC(=O)c2cc(F)c(F)c(F)c2F)C1=O` (stereo not shown) [Compound 8], the “MST Ki” value in data set [5] is given as “n.b”. In data set [2], this compound showed a CHIIAM of 27.9. In the data set with HUVECs [6], the “Tube formation IC50” value was “n.i”. For the same compound, the “Neosubstrate degradation (%) SALL4” value on SALL4 is less than 5%. Besides, the chromatographic logD in [4] is 2.2. Besides, the “Neosubstrate degradation (%) IKZF3” value on IKZF3 is on record as less than 5%.
In turn, `O=C1CCC(NC(=O)c2cc(F)c(F)cc2F)C(=O)N1` (stereo not shown) [Compound 18] yielded a CHIIAM in data set [2] of 11.0. For the same compound, in the data set on HUVECs [3] (100 μM, 18 h, HUVECs, relative to vehicle control, n.i. = no inhibition), the “Inhibition of tube formation (%)” value is listed as “n.i.^d”. Moreover, in [4], the chromatographic logD is 0.6.
In the case of `O=C1CCC(NC(=O)c2ccc(F)c(F)c2)C(=O)N1` (stereo not shown) [Compound 16], the CHIIAM in [2] is given as 13.6. In addition, in the data set with HUVECs [3] (setting [10]), the inhibition at 100 µM was 15.5%. In [4], the chromatographic logD is 0.6.
On to `O=C1CCC(N2C(=O)c3ccccc3C2=O)C(=O)N1` (stereo not shown) [Compound 1, thalidomide, reference compound], for which the inhibition constant (Ki) in data set [5] (read-out: MST Ki) is 8.55 µM. Also, in the data set with HUVECs [7] (100 μM), the “Effect on HUVEC proliferation” value is reported as “decreased neither HUVEC proliferation”. In [2], this compound gave a CHIIAM of 12.5. Further, the “Block of tube formation” value with HUVECs [6] (concentration range 12.5–100 μM) is “failed to significantly block tube formation”. Moreover, the “Tube formation IC50” value in the data set on HUVECs [6] is “n.i.^h”. In addition, in [4], the chromatographic logD was 0.5.
`O=C1CCC(NC(=O)c2ccc(F)cc2)C(=O)N1` (stereo not shown) [Compound 11, N-(2,6-Dioxo-3-piperidyl)-4-fluorobenzamide] yielded a CHIIAM in [2] of 10.1. Further, the inhibition at 100 µM in the data set on HUVECs [3] (setting [10]) was 17.9%. Moreover, the chromatographic logD in [4] is 0.1.
For `O=C1CCC(NC(=O)c2cccc(F)c2)C(=O)N1` (stereo not shown) [Compound 10, N-(2,6-Dioxo-3-piperidyl)-3-fluorobenzamide], in that order: 10.6, 10.3% and 0.1.
`CC(C)N1C(=O)NC(=O)C(C)(N2C(=O)c3ccccc3C2=O)C1=O` (stereo not shown) [Compound 3]: the “Effect on MM1.S cell growth” value in [8] was “did not affect HUVEC or MM1.S cell growth”. Further, in [5], the “MST Ki” value was “n.b.^i”. Moreover, the “Effect on HUVEC cell growth” value with HUVECs [7] (10 μM) was “did not affect HUVEC or MM1.S cell growth”. The same compound had a CHIIAM in [2] of 28.9. In addition, the “Tube formation IC50” value with HUVECs [6] was “n.i”. The “Neosubstrate degradation (%) SALL4” value on SALL4 is recorded as less than 5%. For the same compound, in data set [9], the half-life was greater than 1 h and the intrinsic clearance (microsomal CLint) at 1 h is 10.3 µL/min/mg. Moreover, in data set [4], the chromatographic logD is 2.2. The “Neosubstrate degradation (%) IKZF3” value at IKZF3 was determined as 11%.
Turning to `CC(C)N1C(=O)NC(=O)C(C)(N2C(=O)c3c(F)c(F)c(F)c(F)c3C2=O)C1=O` (stereo not shown) [Compound 4], the “Reduction of MM1.S growth” value in data set [8] is recorded as greater than 95%. For the same compound, the “MST Ki” value in data set [5] was “n.b”. For the same compound, in the data set with HUVECs [7] (10 μM), the “Reduction of HUVEC growth” value is listed as greater than 95%. For the same compound, the CHIIAM in data set [2] was 31.6. Also, the “Neosubstrate degradation (%) SALL4” value on SALL4 is less than 5%. Also, in data set [9], the half-life was greater than 1 h and the microsomal CLint at 1 h amounted to 4.6 µL/min/mg. Moreover, in [4], the elogD7.4 is 3.0. The “Neosubstrate degradation (%) IKZF3” value on IKZF3 was less than 5%.
`O=C1CCC(NC(=O)c2cc(F)ccc2F)C(=O)N1` (stereo not shown) [Compound 14] displayed a CHIIAM in [2] of 7.2. Further, the inhibition at 100 µM in the data set on HUVECs [3] (setting [10]) was found to be 24.2%. The chromatographic logD in [4] was 0.3.
Regarding `O=C1CCC(NC(=O)c2cc(F)c(F)c(F)c2)C(=O)N1` (stereo not shown) [Compound 19], the CHIIAM in [2] stood at 17.9. In the data set on HUVECs [3] (setting [10]), the inhibition at 100 µM was 8.1%. Further, the chromatographic logD in [4] is 1.
For `O=C1CCC(NC(=O)c2ccc(F)c(F)c2F)C(=O)N1` (stereo not shown) [Compound 17], in that order: 12.2, 30.3% and 0.7.
For `O=C1CCC(NC(=O)c2cccc(F)c2F)C(=O)N1` (stereo not shown) [Compound 12], in that order: 7.6, 31.1% and 0.3.
Taken in the same sequence, the figures for `O=C1CCC(NC(=O)c2cc(F)cc(F)c2)C(=O)N1` (stereo not shown) [Compound 15] were 12.3, 44.3% and 0.6.
Regarding `O=C1CCC(NC(=O)c2ccccc2)C(=O)N1` (stereo not shown) [Compound 5], the elogD7.4 in data set [1] (pH 7.4) is reported as −0.3^j.
Turning to `Nc1cccc2c1C(=O)N(C1CCC(=O)NC1=O)C2=O` (stereo not shown) [pomalidomide, reference compound], at SALL4, the “SALL4 degradation (Western blot, in words)” value is “degraded IKZF3 and SALL4”. For the same compound, at IKZF3-GFP fusion protein, the “Abundance of IKZF3-GFP (eGFP/mCherry ratio, DMSO-normalized)” value is given as “induced to a greater extent”. In addition, at IKZF3, the “IKZF3 degradation (Western blot, in words)” value is “degraded IKZF3 and SALL4”.
`O=C1CCC(NC(=O)c2ccc(F)cc2F)C(=O)N1` (stereo not shown) [Compound 13] returned a CHIIAM in [2] of 7.2. For the same compound, the inhibition at 100 µM with HUVECs [3] (setting [10]) worked out at 35.8%. Besides, the chromatographic logD in [4] is 0.3.
Consider `N#Cc1ccc(N2CCN(Cc3ccc(COc4cccc5c4CN([C@H]4CCC(=O)NC4=O)C5=O)cc3)CC2)c(F)c1` [mezigdomide, reference compound], for which, on SALL4, the “SALL4 degradation (Western blot, in words)” value is “degraded IKZF3 and SALL4”. For the same compound, the “Abundance of IKZF3-GFP (eGFP/mCherry ratio, DMSO-normalized)” value at IKZF3-GFP fusion protein is reported as “induced to a greater extent”. Further, the “IKZF3 degradation (Western blot, in words)” value on IKZF3 was “degraded IKZF3 and SALL4”.
In the case of `CC(C)N1C(=O)NC(=O)C(C)(NC(=O)c2ccccc2)C1=O` (stereo not shown) [Compound 7], the “MST Ki” value in data set [5] is reported as “n.b”. For the same compound, in [2], the CHIIAM came to 20.9. The “Tube formation IC50” value with HUVECs [6] is given as “n.i”. Further, the “Neosubstrate degradation (%) SALL4” value at SALL4 is on record as less than 5%. Moreover, the chromatographic logD in [4] is 1.2. Moreover, the “Neosubstrate degradation (%) IKZF3” value at IKZF3 is less than 5%.
On to `O=C1CCC(N2C(=O)c3c(F)c(F)c(F)c(F)c3C2=O)C(=O)N1` (stereo not shown) [Compound 2, Tetrafluoro-thalidomide], for which the “Reduction of MM1.S growth” value in [8] worked out at 95%. Moreover, in the data set with HUVECs [7] (10 μM), the “Reduction of HUVEC growth” value is 48%. For the same compound, the CHIIAM in data set [2] came out at 17.8. Moreover, the “Antiangiogenic activity in the tube formation assay” value in the data set on HUVECs [3] (10 μM, HUVECs) is listed as “significantly inhibited tubule formation”. Further, in the data set with HUVECs [3] (setting [10]), the inhibition at 10 µM was determined as 95.3%. Besides, the “Neosubstrate degradation (%) SALL4” value at SALL4 is less than 5%. In addition, the “Neosubstrate degradation (%) IKZF3” value at IKZF3 is on record as less than 5%.
